Test results reported in ChEMBL document CHEMBL1146663, “Anti-inflammatory flavonoids and pterocarpanoid from Crotalaria pallida and C. assamica” (Bioorg Med Chem Lett, 2004).
pIC50: −log10 of the molar value.

Assays:
Mus musculus [1] = species: Mus musculus; assay: Inhibitory effect of compound on the accumulation of NO2 in the culture media of N9 cells in response to LPS/IFN-gamma; assay type: functional, cell-based
Mus musculus [2] = species: Mus musculus; assay: Inhibitory effect of compound on the accumulation of NO2 in the culture media of RAW 264.7 cells in response to LPS; assay type: functional, cell-based
Rattus norvegicus [3] = species: Rattus norvegicus; assay: Inhibitory effect of compound on superoxide anion generation in rat neutrophils stimulated with PMA; assay type: functional
Rattus norvegicus [4] = species: Rattus norvegicus; assay: Inhibitory effect of compound on superoxide anion generation in rat neutrophils stimulated with fMLP/CB; assay type: functional
Mus musculus [5] = species: Mus musculus; assay: Inhibitory effect of compound on the accumulation of NO2 in the culture media of RAW 264.7 cells in response to LPS; potent effect; assay type: functional
Mus musculus [6] = species: Mus musculus; assay: Inhibitory effect of compound on the accumulation of NO2 in the culture media of N9 cells in response to LPS/IFN-gamma; potent effect; assay type: functional

Row | SMILES | pIC50 (Mus musculus [1]) | pIC50 (Mus musculus [2]) | pIC50 (Rattus norvegicus [3]) | pIC50 (Rattus norvegicus [4]) | IC50 (Mus musculus [5]) | IC50 (Mus musculus [6])
1 | O=c1c(O)c(-c2ccc(O)cc2)oc2cc(OC3O[C@H](CO)[C@@H](O)[C@H](O)[C@H]3O)cc(O)c12 (stereo partly specified) | < 4.52 | < 4.52 | < 4.52 | < 4.52 |  | 
2 | CN1CCN(CCCN2c3ccccc3Sc3ccc(C(F)(F)F)cc32)CC1 [TRIFLUOPERAZINE] |  |  | 5.57 | 5.18 |  | 
3 | COc1cc(O)ccc1-c1coc2cc(O)cc(O)c2c1=O [THERALIN] | < 4.52 | < 4.52 | < 4.52 | < 4.52 |  | 
4 | CC(=N)NCc1cccc(CN)c1 [1400W] | 5.66 | 5.21 |  |  |  | 
5 | O=c1c(-c2ccc(O)cc2O)coc2cc(O)cc(O)c12 | < 4.52 | < 4.52 | < 4.52 | < 4.52 |  | 

Results, then the compound that gave them:

Row | pIC50 (Mus musculus [1]) | pIC50 (Mus musculus [2]) | pIC50 (Rattus norvegicus [3]) | pIC50 (Rattus norvegicus [4]) | IC50 (Mus musculus [5]) | IC50 (Mus musculus [6]) | SMILES
6 | 4.86 | < 4.52 | < 4.52 | < 4.52 |  |  | C[C@](O)(CO)c1cc2c3c(ccc2o1)[C@@H]1COc2cc(O)ccc2[C@@H]1O3
7 |  |  |  |  | potent effect | potent effect | C=C(C)c1cc2c3c(ccc2o1)[C@@H]1COc2cc(O)ccc2[C@@H]1O3 [CROTAFURAN A]
8 |  |  |  |  | potent effect | potent effect | CC(=O)c1cc2c3c(ccc2o1)[C@@H]1COc2cc(O)ccc2[C@@H]1O3 [CROTAFURAN B]
9 | < 4.52 | 4.97 | < 4.52 | 5.47 |  |  | O=c1cc(-c2ccc(O)cc2)oc2cc(O)cc(O)c12 [APIGENIN]
10 | < 4.52 | < 4.52 | < 4.52 | < 4.52 |  |  | O=c1cc(-c2ccc(O)cc2)oc2cc(O)ccc12
11 | < 4.52 | < 4.52 | < 4.52 | 4.60 |  |  | O=c1c(-c2ccc(O)cc2O)coc2cc(O)ccc12
